Laboratory results from patent US8076325B2, “1,2,4,5-tetrahydro-3H-benzazepine compounds, a process for their preparation and pharmaceutical compositions containing them” (Les Laboratoires Servier, priority 2007, dated 2011).
Counter-ions that a name gives are not always drawn.

system: spontaneously beating right atrium; assay: Effect of compounds on the spontaneous beating rate of the right atrium in the rat; details: Rattus norvegicus, 0.25 h
Description: Male WISTAR rats weighing from 325 to 375 g are anaesthetised by ip injection of pentobarbital sodium (30 mg/kg). The heart is rapidly excised and placed in a physiological solution at 4° C. which contains (in mM): NaCl 120.3, KCl 4.8, CaCl2 2.5, KH2PO4 1.0, MgSO4 1.3, NaHCO3 24.2, glucose 11.1, Ca-EDTA 0.016, and which is oxygenated (carbogene 95% O2+5% CO2), pH 7.4. The right atrium (RA), which beats spontaneously, is isolated, placed in a basin, thermostatically controlled at 35° C., containing 20 ml of physiological solution and connected to an isometric tension sensor (model IT-25, EMKA Technologies, Paris, France). The initial tension is set at 0.4 g. The spontaneous beating rate is measured by IOX software (EMKA Technologies, Paris, France). Preparations whose spontaneous beating rate is not between 200 and 300 beats per minute are excluded.
The compounds are dissolved daily at 10^−2M. The following dilutions are stored in ice over the duration of the experiment.
After stabilisation for 30 minutes, the compound under test is added to the medium in cumulative manner every 15 minutes (4 concentrations). The reductions in beating rate are expressed as a percentage relative to the initial rate. The concentration that reduces the initial beating rate by 30% (IC30) is calculated and expressed in terms of molarity (μM).

**Q.** Which IC30 does the source give for CNC(=O)Oc1ccc2c(c1)C(CN(C)CCC(=O)N1CCc3cc(OC)c(OC)cc3CC1)C2 (stereo not shown) [Example 46, 8-{[[3-(7,8-Dimethoxy-1,2,4,5-tetrahydro-3H-3-benzazepin-3-yl)-3-oxopropyl](methyl)amino]methyl}bicyclo[4.2.0]octa-1,3,5-trien-3-yl methylcarbamate hydrochloride] here?
**A.** 500 nM

**Q.** COc1cc2c(cc1OC)CCN(C(=O)CCN(C)CC1Cc3cc(OC(=O)N4CCCC4)ccc31)CC2 (stereo not shown) [Example 73, 7-{[[3-(7,8-Dimethoxy-1,2,4,5-tetrahydro-3H-3-benzazepin-3-yl)-3-oxopropyl](methyl)amino]methyl}bicyclo[4.2.0]octa-1,3,5-trien-3-yl 1-pyrrolidinecarboxylate hydrochloride] was tested. Which IC30 did it give?
**A.** 2400 nM

**Q.** Which IC30 does the source give for COc1cc2c(cc1OC)CCN(C(=O)CCNCC1Cc3ccc(OC(=O)N(C)C)cc31)CC2 (stereo not shown) [Example 53, 8-{[[3-(7,8-Dimethoxy-1,2,4,5-tetrahydro-3H-3-benzazepin-3-yl)-3-oxopropyl]amino]methyl}bicyclo[4.2.0]octa-1,3,5-trien-3-yl dimethylcarbamate hydrochloride] here?
**A.** 1800 nM

**Q.** With CNC(=O)Oc1ccc2c(c1)CC2CN(C)CCC(=O)N1CCc2cc(OC)c(OC)cc2CC1 (stereo not shown) [Example 44, 7-{[[3-(7,8-Dimethoxy-1,2,4,5-tetrahydro-3H-3-benzazepin-3-yl)-3-oxopropyl](methyl)amino]methyl}bicyclo[4.2.0]octa-1,3,5-trien-3-yl methylcarbamate hydrochloride] as the compound, how does the IC30 read?
**A.** 800 nM

**Q.** Which IC30 does the source give for COc1cc2c(cc1OC)CCN(C(=O)CCNCC1Cc3cc(OC(=O)N(C)C)ccc31)CC2 (stereo not shown) [Example 54, 7-{[[3-(7,8-Dimethoxy-1,2,4,5-tetrahydro-3H-3-benzazepin-3-yl)-3-oxopropyl]amino]methyl}bicyclo[4.2.0]octa-1,3,5-trien-3-yl dimethylcarbamate hydrochloride] here?
**A.** 800 nM

**Q.** How did the IC30 turn out when COc1cc2c(cc1OC)CCN(C(=O)CCN(C)CC1Cc3cc(OC(=O)N(C)C)ccc31)CC2 (stereo not shown) [Example 47, 7-{[[3-(7,8-Dimethoxy-1,2,4,5-tetrahydro-3H-3-benzazepin-3-yl)-3-oxopropyl](methyl)amino]methyl}bicyclo[4.2.0]octa-1,3,5-trien-3-yl dimethylcarbamate hydrochloride] was run?
**A.** 600 nM

**Q.** Which IC30 does the source give for CCN(CC)C(=O)Oc1ccc2c(c1)CC2CN(C)CCC(=O)N1CCc2cc(OC)c(OC)cc2CC1 (stereo not shown) [Example 71, 7-{[[3-(7,8-Dimethoxy-1,2,4,5-tetrahydro-3H-3-benzazepin-3-yl)-3-oxopropyl](methyl)amino]methyl}bicyclo[4.2.0]octa-1,3,5-trien-3-yl diethylcarbamate hydrochloride] here?
**A.** 1800 nM

**Q.** Which IC30 does the source give for COc1cc2c(cc1OC)CCN(C(=O)CCN(C)CC1Cc3ccc(OC(=O)N(C)C)cc31)CC2 (stereo not shown) [Example 50, 8-{[[3-(7,8-Dimethoxy-1,2,4,5-tetrahydro-3H-3-benzazepin-3-yl)-3-oxopropyl](methyl)amino]methyl}bicyclo[4.2.0]octa-1,3,5-trien-3-yl dimethylcarbamate hydrochloride] here?
**A.** 500 nM

same assay, conditions: Rattus norvegicus, 0.25 h; concentration that reduces the initial spontaneous beating rate by 30%; isolated right atrium of male WISTAR rats, 35° C., compound added cumulatively every 15 minutes (4 concentrations); read-out: IC30

**Q.** For COc1cc2c(cc1C)CC2CN(C)CCC(=O)N1CCc2cc(OC)c(OC)cc2CC1 (stereo not shown) [Example 76, 3-(7,8-Dimethoxy-1,2,4,5-tetrahydro-3H-3-benzazepin-3-yl)-N-{[4-methoxy-3-methyl-bicyclo[4.2.0]octa-1,3,5-trien-7-yl]methyl}-N-methyl-3-oxopropan-1-amine hydrochloride], which IC30 is on record?
**A.** 1600 nM

**Q.** COc1cc2c(cc1OC)CCN(C(=O)CCN(CC1CCCC1)C[C@H]1Cc3cc(OC)c(OC)cc31)CC2 [Example 28, N-(Cyclopentylmethyl)-N-{[(7S)-3,4-dimethoxybicyclo[4.2.0]octa-1,3,5-trien-7-yl]methyl}-3-(7,8-dimethoxy-1,2,4,5-tetrahydro-3H-3-benzazepin-3-yl)-3-oxopropan-1-amine hydrochloride] was tested. Which IC30 did it give?
**A.** 1200 nM

**Q.** Which IC30 does the source give for COc1cc2c(cc1OC)CCN(C(=O)CCN(CC1CCC1)C[C@H]1Cc3cc(OC)c(OC)cc31)CC2 [Example 29, N-(Cyclobutylmethyl)-N-{[(7S)-3,4-dimethoxybicyclo[4.2.0]octa-1,3,5-trien-7-yl]methyl}-3-(7,8-dimethoxy-1,2,4,5-tetrahydro-3H-3-benzazepin-3-yl)-3-oxopropan-1-amine fumarate] here?
**A.** 400 nM

**Q.** With COc1ccc2c(c1)CCN(C(=O)CCN(C)C[C@H]1Cc3cc(OC)c(OC)cc31)CC2 [Example 34, N-{[(7S)-3,4-Dimethoxybicyclo[4.2.0]octa-1,3,5-trien-7-yl]methyl}-3-(7-methoxy-1,2,4,5-tetrahydro-3H-3-benzazepin-3-yl)-N-methyl-3-oxopropan-1-amine hydrochloride] as the compound, how does the IC30 read?
**A.** 1300 nM

**Q.** COc1cc2c(cc1OC)CCN(C(=O)CCNC[C@H]1Cc3cc(OC)c(OC)cc31)CC2 [Example 4, N-{[(7S)-3,4-Dimethoxybicyclo[4.2.0]octa-1,3,5-trien-7-yl]methyl}-3-(7,8-dimethoxy-1,2,4,5-tetrahydro-3H-3-benzazepin-3-yl)-3-oxopropan-1-amine hydrochloride] was tested. Which IC30 did it give?
**A.** 1400 nM

**Q.** CCOc1ccc2c(c1)CC2CNCCC(=O)N1CCc2cc(OC)c(OC)cc2CC1 (stereo not shown) [Example 14, 3-(7,8-Dimethoxy-1,2,4,5-tetrahydro-3H-3-benzazepin-3-yl)-N-[(3-ethoxybicyclo[4.2.0]octa-1,3,5-trien-7-yl)methyl]-3-oxopropan-1-amine hydrochloride] was tested. Which IC30 did it give?
**A.** 1000 nM

**Q.** Which IC30 does the source give for COc1cc2c(cc1C)C(CN(C)CCC(=O)N1CCc3cc(OC)c(OC)cc3CC1)C2 (stereo not shown) [Example 74, 3-(7,8-Dimethoxy-1,2,4,5-tetrahydro-3H-3-benzazepin-3-yl)-N-{[3-methoxy-4-methyl-bicyclo[4.2.0]octa-1,3,5-trien-7-yl]methyl}-N-methyl-3-oxopropan-1-amine hydrochloride] here?
**A.** 1000 nM

**Q.** Which IC30 does the source give for COc1cc2c(cc1OC)CCN(C(=O)CCN(C[C@H]1Cc3cc(OC)c(OC)cc31)C1CCCC1)CC2 [Example 27, N-Cyclopentyl-N-{[(7S)-3,4-dimethoxybicyclo[4.2.0]octa-1,3,5-trien-7-yl]methyl}-3-(7,8-dimethoxy-1,2,4,5-tetrahydro-3H-3-benzazepin-3-yl)-3-oxopropan-1-amine fumarate] here?
**A.** 1200 nM

**Q.** C=CCN(CCC(=O)N1CCc2cc(OC)c(OC)cc2CC1)C[C@H]1Cc2cc(OC)c(OC)cc21 [Example 23, N-Allyl-N-{[(7S)-3,4-dimethoxybicyclo[4.2.0]octa-1,3,5-trien-7-yl]methyl}-3-(7,8-dimethoxy-1,2,4,5-tetrahydro-3H-3-benzazepin-3-yl)-3-oxopropan-1-amine hydrochloride] was tested. Which IC30 did it give?
**A.** 1400 nM

**Q.** How did the IC30 turn out when COc1cc2c(cc1OC)CCN(C(=O)CCN(C)CC1Cc3cc(OC)c(OC)cc3C1)CC2 [Example 7, N-[(5,6-Dimethoxy-2,3-dihydro-1H-inden-2-yl)methyl]-3-(7,8-dimethoxy-1,2,4,5-tetrahydro-3H-3-benzazepin-3-yl)-N-methyl-3-oxopropan-1-amine hydrochloride] was run?
**A.** 1700 nM

**Q.** COc1cc2c(cc1OC)CCN(C(=O)CCN(C)C[C@H]1Cc3cc(OC)c(OC)cc31)CC2 [Example 3a, N-{[(7S)-3,4-Dimethoxybicyclo[4.2.0]octa-1,3,5-trien-7-yl]methyl}-3-(7,8-dimethoxy-1,2,4,5-tetrahydro-3H-3-benzazepin-3-yl)-N-methyl-3-oxopropan-1-amine hydrochloride] was tested. Which IC30 did it give?
**A.** 1300 nM

**Q.** For COc1cc2c(cc1OC)CCN(C(=O)CCN(CC1CC1)C[C@H]1Cc3cc(OC)c(OC)cc31)CC2 [Example 22, N-(Cyclopropylmethyl)-N-{[(7S)-3,4-dimethoxybicyclo[4.2.0]octa-1,3,5-trien-7-yl]methyl}-3-(7,8-dimethoxy-1,2,4,5-tetrahydro-3H-3-benzazepin-3-yl)-3-oxopropan-1-amine hydrochloride], which IC30 is on record?
**A.** 800 nM

same assay, conditions: concentration that reduces the initial spontaneous beating rate by 30%; isolated right atrium of male WISTAR rats, 35° C., compound added cumulatively every 15 minutes (4 concentrations); read-out: IC30

**Q.** “7-({[3-(7,8-Dimethoxy-1,2,4,5-tetrahydro-3H-3-benzazepin-3-yl)-3-oxopropyl](methyl)amino}methyl)bicyclo[4.2.0]octa-1,3,5-trien-3-yl hexahydrocyclopenta[c]pyrrole-2(1H)-carboxylate (cis compound) [Example 78]” was tested. Which IC30 did it give?
**A.** 2000 nM

**Q.** How did the IC30 turn out when COc1cc2c(cc1OC)CCN(C(=O)CCN(C)CC1Cc3cc(OC(=O)N(C)C)ccc31)CC2.Cl (single isomer, unassigned; (-)) [Example 48, (−) enantiomer of 7-{[[3-(7,8-dimethoxy-1,2,4,5-tetrahydro-3H-3-benzazepin-3-yl)-3-oxopropyl](methyl)amino]methyl}bicyclo[4.2.0]octa-1,3,5-trien-3-yl dimethylcarbamate hydrochloride] was run?
**A.** 500 nM
